In patent US20160331775A1, “E-SELECTIN INHIBITION WORKS IN COMBINATION WITH LOW-MOLECULAR WEIGHT HEPARIN TO DECREASE VENOUS THROMBOSIS AND BLEEDING RISK” (THE REGENTS OF THE UNIVERSITY OF MICHIGAN, priority 2015, published 2016) one finds tail bleeding time data, which are given here for 1 compound.

Each structure is given as a SMILES string.

This series is described as follows: tail vein bleeding time. The class given is in vivo, mouse. Particulars: GMI-1271 alone, 20/kg IP BID; non-treated controls 53.8±7.5; not significantly elevated.

The compound `CC[C@H]1C[C@@H](C(=O)NCCNC(=O)CCOCCOCCOCCOCCOCCOCCOCCOCCOCCOCCOCCOC)C[C@@H](O[C@@H]2O[C@H](CO)[C@H](O)[C@H](O[C@@H](CC3CCCCC3)C(=O)[O-])[C@H]2NC(C)=O)[C@@H]1O[C@@H]1O[C@@H](C)[C@@H](O)[C@@H](O)[C@@H]1O.[Na+]` [GMI-1271] gave a tail bleeding time of 67.00 ± 44 s.
